Where a name gives a salt, the structure may show the parent alone.

Data set [1] can be described thus: Metabolic stability in human liver microsomes, unbound intrinsic clearance (Cl int/fu mic). The note with it: human, liver microsomes, pH 7.4, human liver microsomes 0.25 mg/mL, 0.5 μM compound, NADPH, read-out: Cl int, mic unb. (h) [l/h/kg] (unbound intrinsic clearance, human). Format: in vitro ADME. In short, it runs like this: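 Unbound intrinsic clearance is CLint divided by fu mic, with the unbound fraction measured by 4 h HTDialysis at 37 °C of 0.25 mg/ml microsomes spiked with 0.5 µM compound. For CLint, 0.5 µM compound was incubated with 0.25 mg/mL human microsomes and 1.0 mM NADPH (pH 7.4, 37 °C). Substrate loss over 30 min was measured by LC-MS/MS and t1/2 assumed first-order kinetics.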
On the technique in general: Liver microsomes are a subcellular fraction often used to study metabolism.

In data set [2] the target is T1, 5-HT2C receptor (Homo sapiens, UniProt P28335).
T1 construct: host or cells: U2OS
In words: Human 5-HT2C functional assay (beta-arrestin2 recruitment, U2OS_HTR2C_β-Arrestin cells). Format: cell-based. The note with it: for EC50: beta-arrestin2 recruitment, U2OS_HTR2C_β-Arrestin cells, 1.5 h incubation, read-out: EC50 5-HT2C (potency in functional assay); for Emax: relative efficacy vs response to 10 μM 5-HT or maximal 5-HT effect (100%). In short, it runs like this: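 EC50 and relative efficacy came from 4-parameter variable-slope fits, normalised to 10 µM 5-HT or maximal 5-HT response (100%). Luminescent β-galactosidase enzyme-complementation signal was read after 1.5 h compound exposure in U2OS_HTR2C_β-Arrestin cells held in 1% serum medium from the prior day.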

T1 sequence (P28335 33-458): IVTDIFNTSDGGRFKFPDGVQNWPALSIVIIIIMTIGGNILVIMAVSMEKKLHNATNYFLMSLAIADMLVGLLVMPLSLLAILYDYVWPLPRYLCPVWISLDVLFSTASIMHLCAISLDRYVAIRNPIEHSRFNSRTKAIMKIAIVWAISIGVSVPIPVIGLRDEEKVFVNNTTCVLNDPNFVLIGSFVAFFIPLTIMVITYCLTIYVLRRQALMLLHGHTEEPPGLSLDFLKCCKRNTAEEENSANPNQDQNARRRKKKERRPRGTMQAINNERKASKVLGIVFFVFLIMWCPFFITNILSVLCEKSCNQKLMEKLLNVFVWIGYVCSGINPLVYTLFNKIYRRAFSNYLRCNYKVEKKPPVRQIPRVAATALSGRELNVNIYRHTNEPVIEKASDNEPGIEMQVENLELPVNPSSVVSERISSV
T1 sequence (P32121 whole entry partner): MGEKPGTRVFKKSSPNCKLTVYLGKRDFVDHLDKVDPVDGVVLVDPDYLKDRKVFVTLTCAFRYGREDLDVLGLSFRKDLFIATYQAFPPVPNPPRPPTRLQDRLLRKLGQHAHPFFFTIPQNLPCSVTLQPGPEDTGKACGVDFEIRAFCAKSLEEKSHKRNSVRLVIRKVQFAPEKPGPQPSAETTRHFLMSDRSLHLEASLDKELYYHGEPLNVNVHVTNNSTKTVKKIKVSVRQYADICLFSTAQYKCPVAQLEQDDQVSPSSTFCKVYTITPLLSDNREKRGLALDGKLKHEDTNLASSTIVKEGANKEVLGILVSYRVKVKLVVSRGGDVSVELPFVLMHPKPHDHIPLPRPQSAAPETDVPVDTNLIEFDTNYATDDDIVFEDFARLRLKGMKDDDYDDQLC

As to `COc1nc(OC2CCC(O)CC2)c(F)cc1CNC(=O)[C@@H]1CCCN1` (stereo partly drawn) [Example 81, (2S)—N-[[5-Fluoro-6-(4-hydroxycyclohexoxy)-2-methoxy-3-pyridyl]methyl]-pyrrolidine-2-carboxamide; 2,2,2-trifluoroacetic Acid], the CLint scaled at 0.5 μM in data set [1] was less than 5 L/h/kg. Moreover, in data set [2], the EC50 was in the range of 200 to 1000 nM and the Emax is more than 70%.

In the case of `COc1nc(OC2CCC(C(F)(F)F)CC2)c(F)cc1CNC(=O)[C@@H]1C[C@H]2C[C@H]2N1` (stereo partly drawn) [Example 82, (1R,3 S,5R)—N-[[5-Fluoro-2-methoxy-6-[4-(trifluoromethyl)cyclohexoxy]-3-pyridyl]methyl]-4-azabicyclo[3.1.0]hexane-3-carboxamide], the CLint scaled at 0.5 μM in data set [1] lay within 5 to 50 L/h/kg. Also, in data set [2], the EC50 is 20 to 200 nM and the Emax was more than 70%.

Consider `COc1nc(OCC(F)F)c(F)cc1CNC(=O)[C@@H]1CCCN1` [Example 86, (2S)—N-[[6-(2,2-Difluoroethoxy)-5-fluoro-2-methoxy-3-pyridyl]methyl]pyrrolidine-2-carboxamide; 2,2,2-trifluoroacetic Acid], for which, in data set [1], the CLint scaled at 0.5 μM is less than 5 L/h/kg. For the same compound, in data set [2], the EC50 was less than 20 nM and the Emax is more than 70%.

As to `COc1nc(OCC(F)(F)F)c(F)cc1CNC(=O)[C@@H]1CCCN1` [Example 87, (2S)—N-[[5-Fluoro-2-methoxy-6-(2,2,2-trifluoroethoxy)-3-pyridyl]methyl]-pyrrolidine-2-carboxamide; 2,2,2-trifluoroacetic Acid], in data set [1], the CLint scaled at 0.5 μM is less than 5 L/h/kg. In data set [2], the EC50 was less than 20 nM and the Emax is more than 70%.

As for `COc1nc(OCC2CC(F)(F)C2(F)F)c(F)cc1CNC(=O)[C@@H]1CCCN1C` (stereo partly drawn) [Example 90, (2S)—N-[[5-Fluoro-2-methoxy-6-[(2,2,3,3-tetrafluorocyclobutyl)methoxy]-3-pyridyl]methyl]-1-methyl-pyrrolidine-2-carboxamide Hydrochloride], in data set [1], the CLint scaled at 0.5 μM is less than 5 L/h/kg. Further, in data set [2], the EC50 was less than 20 nM and the Emax was more than 70%.

With `COc1nc(OCC(F)(F)C(F)F)c(F)cc1CNC(=O)[C@@H]1CCCN1C` [Example 91, (2S)—N-[[5-Fluoro-2-methoxy-6-(2,2,3,3-tetrafluoropropoxy)-3-pyridyl]methyl]-1-methyl-pyrrolidine-2-carboxamide Hydrochloride], the CLint scaled at 0.5 μM in data set [1] was less than 5 L/h/kg. Besides, in data set [2], the EC50 is less than 20 nM and the Emax is more than 70%.

As to `COc1nc(OCC2CC(F)(F)C2)c(F)cc1CNC(=O)[C@@H]1CCCN1C` [Example 92, (2S)—N-[[6-[(3,3-Difluorocyclobutyl)methoxy]-5-fluoro-2-methoxy-3-pyridyl]-methyl]-1-methyl-pyrrolidine-2-carboxamide Hydrochloride], the CLint scaled at 0.5 μM in data set [1] is less than 5 L/h/kg. In data set [2], the EC50 is less than 20 nM and the Emax is more than 70%.

Consider `COc1nc(OC2CCCC2F)c(F)cc1CNC(=O)[C@@H]1CCCN1` (stereo partly drawn) [Example 93, (2S)—N-[[5-Fluoro-6-(2-fluorocyclopentoxy)-2-methoxy-3-pyridyl]methyl]-pyrrolidine-2-carboxamide; 2,2,2-trifluoroacetic Acid], for which the CLint scaled at 0.5 μM in data set [1] was less than 5 L/h/kg. For the same compound, in data set [2], the EC50 is less than 20 nM and the Emax is more than 70%.

As to `COc1nc(OC2CC(F)(F)C2)c(F)cc1CNC(=O)[C@@H]1C[C@@H](F)CN1` [Example 94, (2S,4R)—N-[[6-(3,3-Difluorocyclobutoxy)-5-fluoro-2-methoxy-3-pyridyl]methyl]-4-fluoro-pyrrolidine-2-carboxamide Hydrochloride], the CLint scaled at 0.5 μM in data set [1] was less than 5 L/h/kg. In addition, in data set [2], the EC50 is less than 20 nM and the Emax was more than 70%.

`COc1nc(OC2CCCC3C2C3(F)F)c(F)cc1CNC(=O)[C@@H]1CCCN1` (stereo partly drawn) [Example 95, (2S)—N-[[6-(7,7-Difluoronorcaran-2-yl)oxy-5-fluoro-2-methoxy-3-pyridyl]methyl]-pyrrolidine-2-carboxamide]: in data set [1], the CLint scaled at 0.5 μM was in the range of 5 to 50 L/h/kg. Moreover, in data set [2], the EC50 is less than 20 nM and the Emax is more than 70%.

In the case of `COc1nc(OCC2(C(F)F)CC2)c(F)cc1CNC(=O)[C@@H]1CCCN1C` [Example 96, (2S)—N-[[6-[[1-(Difluoromethyl)cyclopropyl]methoxy]-5-fluoro-2-methoxy-3-pyridyl]methyl]-1-methyl-pyrrolidine-2-carboxamide; (2S,3S)-2,3-dihydroxybutanedioic Acid], in data set [1], the CLint scaled at 0.5 μM is less than 5 L/h/kg. In data set [2], the EC50 was less than 20 nM and the Emax was more than 70%.

Regarding `COc1nc(OCC2(C(F)F)CC2)c(F)cc1CNC(=O)[C@@H]1CCCN1` [Example 97, (2S)—N-[[6-[[1-(Difluoromethyl)cyclopropyl]methoxy]-5-fluoro-2-methoxy-3-pyridyl]methyl]pyrrolidine-2-carboxamide; (2S,3S)-2,3-dihydroxybutanedioic Acid], the CLint scaled at 0.5 μM in data set [1] was less than 5 L/h/kg. Moreover, in data set [2], the 50% effective concentration (EC50) is less than 20 nM and the Emax is more than 70%.

Turning to `COc1nc(OCC2(C(F)(F)F)CC2)c(F)cc1CN(C)C(=O)[C@@H]1CCCN1C` [Example 98, (2S)—N-[[5-Fluoro-2-methoxy-6-[[1-(trifluoromethyl)cyclopropyl]methoxy]-3-pyridyl]methyl]-N,1-dimethyl-pyrrolidine-2-carboxamide Hydrochloride], the CLint scaled at 0.5 μM in data set [1] is less than 5 L/h/kg. Besides, in data set [2], the EC50 lay in the range of 20 to 200 nM and the Emax was in the range of 50 to 70%.

Regarding `COc1nc(OC2CC(F)(F)C2)c(F)cc1CN(C)C(=O)[C@@H]1CCCN1C` [Example 99, (2S)—N-[[6-(3,3-Difluorocyclobutoxy)-5-fluoro-2-methoxy-3-pyridyl]methyl]-N,1-dimethyl-pyrrolidine-2-carboxamide Hydrochloride], in data set [1], the CLint scaled at 0.5 μM is less than 5 L/h/kg. For the same compound, in data set [2], the EC50 is 20 to 200 nM and the Emax fell in the range of 50 to 70%.

Consider `COc1nc(OCC(F)(F)F)c(F)cc1CNC(=O)[C@@H]1CCCN1C` [Example 100, (2S)—N-[[5-Fluoro-2-methoxy-6-(2,2,2-trifluoroethoxy)-3-pyridyl]methyl]-1-methyl-pyrrolidine-2-carboxamide Hydrochloride], for which the CLint scaled at 0.5 μM in data set [1] is less than 5 L/h/kg. In data set [2], the EC50 was less than 20 nM and the Emax was more than 70%.

In the case of `COc1nc(OC2CC(F)(F)C2)c(F)cc1CNC(=O)[C@H](C)N1CCC1` [Example 101, (2S)-2-(Azetidin-1-yl)-N-[[6-(3,3-difluorocyclobutoxy)-5-fluoro-2-methoxy-3-pyridyl]methyl]propanamide Hydrochloride], the CLint scaled at 0.5 μM in data set [1] was less than 5 L/h/kg. In data set [2], the EC50 was less than 20 nM and the Emax was more than 70%.

Turning to `COc1nc(OCC(F)(F)C(F)F)c(F)cc1CN(C)C(=O)[C@@H]1CCCN1C` [Example 102, (2S)—N-[[5-Fluoro-2-methoxy-6-(2,2,3,3-tetrafluoropropoxy)-3-pyridyl]methyl]-N,1-dimethyl-pyrrolidine-2-carboxamide Hydrochloride], the CLint scaled at 0.5 μM in data set [1] was less than 5 L/h/kg. Besides, in data set [2], the 50% effective concentration (EC50) was in the range of 200 to 1000 nM and the Emax was in the range of 50 to 70%.

One may read the EC50 as the concentration at which the effect is half-maximal. The term Emax denotes the maximal effect, on the per cent scale that the assay sets.
